Experimental data as given in patent publication US11629201B2, “PSMA-binding agents and uses thereof” (ITM Isotope Technologies Munich SE, priority 2017, dated 2023).

How the values were obtained:
[1] = n-Octanol/PBS distribution coefficient (log D); type: physicochemical; settings: n-octanol/PBS; radiolabeled ligand, 50 MBq/nmol, PBS pH 7.4
Procedure: The radioligand (0.5 MBq; 10 pmol, 25 μL) was then added to a reagent tube containing 1475 μL of PBS pH 7.4 and 1500 μL of n-octanol. The vials were vortexed vigorously followed by a centrifugation step for phase separation.
Determination of n-Octanol/PBS Distribution Coefficients (Log D Values). The distribution coefficients (log D values) of the ^64Cu-labeled radioligands (50 MBq/nmol) were determined by a shake-flask method using liquid-liquid extraction followed by phase separation as previously reported. Three experiments were performed with five replicates for each radioligand. Statistical significance of the data (p<0.05) was evaluated using an unpaired t-test (GraphPad Prism software, version 7).
Determination of n-Octanol/PBS Distribution Coefficients (Log D Values). […] A sample of the radioligands was mixed with phosphate-buffered saline (PBS) and n-octanol followed by vigorous vortexing. […] Three experiments were performed with five replicates for each compound.

PC-3 PIP tumor = experiment: Therapy study in PC-3 PIP tumor-bearing mice; type: in vivo
Description: Mice of Groups B and D received 2 MBq of the radioligand (1 nmol/mouse), whereas mice of Groups C and E received 5 MBq of the radioligand (1 nmol/mouse). The mice were monitored by measuring body weights and the tumor size every other day over 12 weeks. Mice were euthanized when pre-defined endpoint criteria were reached, or when the study was terminated at Day 84. The relative body weight (RBW) was defined as [BWx/BW0], where BWx is the body weight in gram at a given day x and BW0 the body weight in gram at day 0. The tumor dimension was determined by measuring the longest tumor axis (L) and its perpendicular axis (W) with a digital caliper. The tumor volume (V) was calculated according to the equation [V=0.5*(L*W2)]. The relative tumor volume (RTV) was defined as [TVx/TV0], where TVx is the tumor volume in mm3 at a given day x and TV0 the tumor volume in mm3 at Day 0.
The efficacy of the radionuclide therapy was expressed as the tumor growth delay (TGDx), which was calculated as the time required for the tumor volume to increase x-fold over the initial volume at the Day 0. The tumor growth delay index [TGDIx=TGDx(T)/TGDx(C)] was calculated as the TGDx ratio of treated mice (T) over control mice (C) for a 2-fold (x=2, TGD2) and 5-fold (x=5, TGD5) increase of the initial tumor volume. As a measure to identify undesired side effects, body weights were compared at the day when the first control mouse had to be euthanized. After euthanasia, kidneys, liver and the brain were collected and weighed. The organ ratios (kidney-to-brain and liver-to-brain) were calculated using the organ masses obtained at the day of euthanasia.
The data was analyzed for significance as indicated in the result part using a one-way ANOVA with Tukey's multiple comparison post-test using GraphPad Prism software (version 7). A value of p<0.05 was considered statistically significant. Survival analysis was performed with Kaplan-Meier curves and a log-rank tests (Mantel Cox).

[2] = test system: PSMA-positive PC-3 PIP cells; experiment: Cell uptake and internalization in PSMA-positive PC-3 PIP cells; type: cell-based; settings: 2 h and 4 h time-point, PC-3 PIP cells
[3] = test system: PC-3 PIP/flu tumor-bearing mice; experiment: Biodistribution studies in PC-3 PIP/flu tumor-bearing mice; settings: for Tumor-to-blood / Tumor-to-kidney / Tumor-to-liver: PC-3 PIP tumor
[4] = 2 MBq/mouse (Groups B, D), control = 1

O=C(O)CC[C@H](NC(=O)N[C@@H](CCCCNC(=O)[C@H](Cc1ccc2ccccc2c1)NC(=O)[C@H]1CC[C@H](CNC(=O)CN2CCN(CC(=O)O)CCN(CC(=O)O)CCN(CC(=O)O)CC2)CC1)C(=O)O)C(=O)O [PSMA-617, reference compound]
logD [1]: -4.4 ± 0.15

O=C(O)CC[C@H](NC(=O)N[C@@H](CCCCNC(=O)[C@H](Cc1ccc2ccccc2c1)NC(=O)[C@H]1CC[C@H](CNC(=O)[C@@H](CCCCNC(=O)CN2CCN(CC(=O)O)CCN(CC(=O)O)CCN(CC(=O)O)CC2)NC(=O)CCCc2ccc(I)cc2)CC1)C(=O)O)C(=O)O [PSMA-ALB-02]
logD [1]: -2.8 ± 0.09

O=C(O)CCC(NC(=O)NC(CCCCNC(=O)C(Cc1ccc2ccccc2c1)NC(=O)C1CCC(CNC(=O)C(CCCCNC(=O)CN2CCN(CC(=O)O)CCN(CC(=O)O)CCN(CC(=O)O)CC2)NC(=O)CC(NC(=O)CC(NC(=O)CCCc2ccc(I)cc2)C(=O)O)C(=O)O)CC1)C(=O)O)C(=O)O (stereo not drawn) [PSMA-ALB-05]
logD [1]: -3.5 ± 0.08

O=C(O)CCC(NC(=O)NC(CCCCNC(=O)C(Cc1ccc2ccccc2c1)NC(=O)C1CCC(CNC(=O)C(CCCCNC(=O)CN2CCN(CC(=O)O)CCN(CC(=O)O)CCN(CC(=O)O)CC2)NC(=O)CC(NC(=O)CC(NC(=O)CC(NC(=O)CCCc2ccc(I)cc2)C(=O)O)C(=O)O)C(=O)O)CC1)C(=O)O)C(=O)O (stereo not drawn) [PSMA-ALB-07]
logD [1]: -3.9 ± 0.25

Cc1ccc(CCCC(=O)NCCCCC(NC(=O)CN2CCN(CC(=O)O)CCN(CC(=O)O)CCN(CC(=O)O)CC2)C(=O)NCC2CCC(C(=O)NC(Cc3ccc4ccccc4c3)C(=O)NCCCCC(NC(=O)NC(CCC(=O)O)C(=O)O)C(=O)O)CC2)cc1 (stereo not drawn) [^64Cu-PSMA-ALB-06, metal not drawn]
logD [1]: -3.1 ± 0.1

Cc1ccc(CCCC(=O)NCCCCC(NC(=O)CN2CCN(CC(=O)O)CCN(CC(=O)O)CCN(CC(=O)O)CC2)C(=O)NCC2CCC(C(=O)NC(Cc3ccc4ccccc4c3)C(=O)NCCCCC(NC(=O)NC(CCC(=O)O)C(=O)O)C(=O)O)CC2)cc1 (stereo not drawn) [^177Lu-PSMA-ALB-06, metal not drawn]
first mouse of group euthanized (PC-3 PIP tumor; 2 MBq/mouse (Groups B, D)): 28 days
median survival (PC-3 PIP tumor; 2 MBq/mouse (Groups B, D)): 36 days
TGDI2 (PC-3 PIP tumor; [4]): 1.8 ± 0.5
TGDI5 (PC-3 PIP tumor; [4]): 2.3 ± 0.6
tumor growth (PC-3 PIP tumor; 5 MBq/mouse (Group E)): the tumor growth was effectively inhibited
mice in which tumors disappeared entirely, no regrowth until Day 84 (PC-3 PIP tumor; 5 MBq/mouse (Group E), n=6): four
mice still alive at the end of the study at Day 84 (PC-3 PIP tumor; 5 MBq/mouse (Group E), n=6): four
first mouse of group euthanized (PC-3 PIP tumor; 5 MBq/mouse (Groups C, E)): 58 days
internalized fraction / internalization rate versus reference [2]: still comparable to ^177Lu-PSMA-617
Blood ([3]; 4 h p.i.): 16.2 ± 1.40 % IA/g
Bone ([3]; 4 h p.i.): 2.23 ± 0.08 % IA/g
Intestines ([3]; 4 h p.i.): 2.64 ± 0.27 % IA/g
Lung ([3]; 4 h p.i.): 9.40 ± 1.55 % IA/g
Muscle ([3]; 4 h p.i.): 1.60 ± 0.38 % IA/g
PC-3 PIP Tumor ([3]; 4 h p.i.): 76.08 ± 7.67 % IA/g
Tumor-to-blood ([3]; 4 h p.i.): 4.72 ± 0.51
Tumor-to-kidney ([3]; 4 h p.i.): 4.02 ± 0.25
Tumor-to-liver ([3]; 4 h p.i.): 24.29 ± 8.27
Blood ([3]; 24 h p.i.): 1.49 ± 0.50 % IA/g
Bone ([3]; 24 h p.i.): 0.41 ± 0.15 % IA/g
Heart ([3]; 24 h p.i.): 0.68 ± 0.18 % IA/g
Intestines ([3]; 24 h p.i.): 0.30 ± 0.06 % IA/g
Lung ([3]; 24 h p.i.): 2.48 ± 2.68 % IA/g
Muscle ([3]; 24 h p.i.): 0.21 ± 0.04 % IA/g
PC-3 PIP Tumor ([3]; 24 h p.i.): 108 ± 11.6 % IA/g
PC-3 flu Tumor ([3]; 24 h p.i.): 0.79 ± 0.23 % IA/g
Spleen ([3]; 24 h p.i.): 0.76 ± 0.18 % IA/g
Stomach ([3]; 24 h p.i.): 0.28 ± 0.07 % IA/g
Tumor-to-blood ([3]; 24 h p.i.): 77.6 ± 21.8
Tumor-to-kidney ([3]; 24 h p.i.): 10.4 ± 1.16
Tumor-to-liver ([3]; 24 h p.i.): 222 ± 49.5
Blood ([3]; 72 h p.i.): 0.62 ± 0.06 % IA/g
Bone ([3]; 72 h p.i.): 0.18 ± 0.01 % IA/g
Heart ([3]; 72 h p.i.): 0.26 ± 0.02 % IA/g
Intestines ([3]; 72 h p.i.): 0.15 ± 0.00 % IA/g
Kidneys ([3]; 72 h p.i.): 5.58 ± 0.62 % IA/g
Liver ([3]; 72 h p.i.): 0.28 ± 0.02 % IA/g
Lung ([3]; 72 h p.i.): 0.67 ± 0.05 % IA/g
PC-3 PIP Tumor ([3]; 72 h p.i.): 77.9 ± 7.52 % IA/g
PC-3 flu Tumor ([3]; 72 h p.i.): 0.43 ± 0.03 % IA/g
Salivary glands ([3]; 72 h p.i.): 0.24 ± 0.03 % IA/g
Stomach ([3]; 72 h p.i.): 0.13 ± 0.02 % IA/g
Tumor-to-blood ([3]; 72 h p.i.): 127 ± 24.9
Tumor-to-kidney ([3]; 72 h p.i.): 14.1 ± 2.02
Tumor-to-liver ([3]; 72 h p.i.): 277 ± 19.3

Cc1ccc(CCCC(=O)NC(CC(=O)NC(CC(=O)NC(CC(=O)NC(CCCCNC(=O)CN2CCN(CC(=O)O)CCN(CC(=O)O)CCN(CC(=O)O)CC2)C(=O)NCC2CCC(C(=O)NC(Cc3ccc4ccccc4c3)C(=O)NCCCCC(NC(=O)NC(CCC(=O)O)C(=O)O)C(=O)O)CC2)C(=O)O)C(=O)O)C(=O)O)cc1 (stereo not drawn) [^177Lu-PSMA-ALB-08, metal not drawn]
internalized fraction / internalization rate versus reference [2]: still comparable to ^177Lu-PSMA-617
Blood ([3]; 4 h p.i.): 0.41 ± 0.18 % IA/g
Bone ([3]; 4 h p.i.): 0.16 ± 0.03 % IA/g
Heart ([3]; 4 h p.i.): 0.19 ± 0.07 % IA/g
Intestines ([3]; 4 h p.i.): 0.20 ± 0.09 % IA/g
Kidneys ([3]; 4 h p.i.): 27.2 ± 5.93 % IA/g
Liver ([3]; 4 h p.i.): 0.27 ± 0.10 % IA/g
Lung ([3]; 4 h p.i.): 0.48 ± 0.21 % IA/g
Muscle ([3]; 4 h p.i.): 0.06 ± 0.03 % IA/g
PC-3 PIP Tumor ([3]; 4 h p.i.): 46.9 ± 16.7 % IA/g
PC-3 flu Tumor ([3]; 4 h p.i.): 0.25 ± 0.19 % IA/g
Salivary glands ([3]; 4 h p.i.): 0.19 ± 0.06 % IA/g
Spleen ([3]; 4 h p.i.): 0.53 ± 0.10 % IA/g
Stomach ([3]; 4 h p.i.): 0.40 ± 0.25 % IA/g
Tumor-to-blood ([3]; 4 h p.i.): 116 ± 9.46
Tumor-to-kidney ([3]; 4 h p.i.): 1.70 ± 0.22
Tumor-to-liver ([3]; 4 h p.i.): 177 ± 2.72
Blood ([3]; 24 h p.i.): 0.08 ± 0.01 % IA/g
Bone ([3]; 24 h p.i.): 0.07 ± 0.02 % IA/g
Heart ([3]; 24 h p.i.): 0.04 ± 0.01 % IA/g
Intestines ([3]; 24 h p.i.): 0.03 ± 0.01 % IA/g
Kidneys ([3]; 24 h p.i.): 13.9 ± 2.32 % IA/g
Liver ([3]; 24 h p.i.): 0.11 ± 0.02 % IA/g
Lung ([3]; 24 h p.i.): 0.09 ± 0.02 % IA/g
Muscle ([3]; 24 h p.i.): 0.02 ± 0.01 % IA/g
PC-3 PIP Tumor ([3]; 24 h p.i.): 33.0 ± 5.04 % IA/g
PC-3 flu Tumor ([3]; 24 h p.i.): 0.09 ± 0.05 % IA/g
Salivary glands ([3]; 24 h p.i.): 0.07 ± 0.05 % IA/g
Spleen ([3]; 24 h p.i.): 0.10 ± 0.03 % IA/g
Stomach ([3]; 24 h p.i.): 0.03 ± 0.01 % IA/g
Tumor-to-blood ([3]; 24 h p.i.): 421 ± 45.7
Tumor-to-kidney ([3]; 24 h p.i.): 2.39 ± 0.24
Tumor-to-liver ([3]; 24 h p.i.): 295 ± 40.1
Blood ([3]; 72 h p.i.): 0.06 ± 0.02 % IA/g
Bone ([3]; 72 h p.i.): 0.09 ± 0.05 % IA/g
Heart ([3]; 72 h p.i.): 0.03 ± 0.01 % IA/g
Intestines ([3]; 72 h p.i.): 0.02 ± 0.01 % IA/g
Kidneys ([3]; 72 h p.i.): 7.98 ± 0.62 % IA/g
Liver ([3]; 72 h p.i.): 0.12 ± 0.01 % IA/g
Lung ([3]; 72 h p.i.): 1.28 ± 2.02 % IA/g
Muscle ([3]; 72 h p.i.): 0.01 ± 0.01 % IA/g
PC-3 PIP Tumor ([3]; 72 h p.i.): 24.1 ± 5.37 % IA/g
PC-3 flu Tumor ([3]; 72 h p.i.): 0.09 ± 0.07 % IA/g
Salivary glands ([3]; 72 h p.i.): 0.03 ± 0.02 % IA/g
Spleen ([3]; 72 h p.i.): 0.11 ± 0.05 % IA/g
Stomach ([3]; 72 h p.i.): 0.02 ± 0.01 % IA/g
Tumor-to-blood ([3]; 72 h p.i.): 416 ± 89.5
Tumor-to-kidney ([3]; 72 h p.i.): 3.02 ± 0.68
Tumor-to-liver ([3]; 72 h p.i.): 207 ± 47.1
